The target in one assay is human TLR8 (Homo sapiens (Human), UniProt Q9NR97). The assay is described as follows: TLR8 inhibition reporter assay (HEK-Blue cells, SEAP reporter, R848 stimulation).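 Further: compounds tested from 0.05 nM to 50 µM, 22 h at 37 °C, SEAP measured with HEK-Blue Detection, inhibition relative to agonist plus DMSO versus a known inhibitor.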 Background: A reporter such as luciferase makes a cellular process visible.
The next assay concerns the target human TLR9 (Homo sapiens (Human), UniProt Q9NR96). Kind of assay: TLR9 inhibition reporter assay (HEK-Blue cells, SEAP reporter, ODN2006 stimulation).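 Further: compounds tested over 0.05 nM to 50 µM, 22 h incubation, inhibition taken as SEAP signal drop from agonist plus DMSO wells toward a known inhibitor control.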
A further assay has as its target human TLR7 (Homo sapiens (Human), UniProt Q9NYK1). The assay is described as follows: TLR7 inhibition reporter assay (HEK-Blue cells, SEAP reporter, gardiquimod stimulation). It counts as cell-based.
Where [1] appears, read: read-out: TLR8 IC50, HEK-Blue cells overexpressing human TLR8, R848 15.9 μM.
The mark [2] stands for this setting: read-out: TLR9 IC50, HEK-Blue cells overexpressing human TLR9, ODN2006 5 nM.
Where [3] appears, read: HEK-Blue cells overexpressing human TLR7, gardiquimod 7.5 μM.

Where two headings read alike, the source gives them in different places.

Sequence of human TLR8 (Q9NR97 27-1041): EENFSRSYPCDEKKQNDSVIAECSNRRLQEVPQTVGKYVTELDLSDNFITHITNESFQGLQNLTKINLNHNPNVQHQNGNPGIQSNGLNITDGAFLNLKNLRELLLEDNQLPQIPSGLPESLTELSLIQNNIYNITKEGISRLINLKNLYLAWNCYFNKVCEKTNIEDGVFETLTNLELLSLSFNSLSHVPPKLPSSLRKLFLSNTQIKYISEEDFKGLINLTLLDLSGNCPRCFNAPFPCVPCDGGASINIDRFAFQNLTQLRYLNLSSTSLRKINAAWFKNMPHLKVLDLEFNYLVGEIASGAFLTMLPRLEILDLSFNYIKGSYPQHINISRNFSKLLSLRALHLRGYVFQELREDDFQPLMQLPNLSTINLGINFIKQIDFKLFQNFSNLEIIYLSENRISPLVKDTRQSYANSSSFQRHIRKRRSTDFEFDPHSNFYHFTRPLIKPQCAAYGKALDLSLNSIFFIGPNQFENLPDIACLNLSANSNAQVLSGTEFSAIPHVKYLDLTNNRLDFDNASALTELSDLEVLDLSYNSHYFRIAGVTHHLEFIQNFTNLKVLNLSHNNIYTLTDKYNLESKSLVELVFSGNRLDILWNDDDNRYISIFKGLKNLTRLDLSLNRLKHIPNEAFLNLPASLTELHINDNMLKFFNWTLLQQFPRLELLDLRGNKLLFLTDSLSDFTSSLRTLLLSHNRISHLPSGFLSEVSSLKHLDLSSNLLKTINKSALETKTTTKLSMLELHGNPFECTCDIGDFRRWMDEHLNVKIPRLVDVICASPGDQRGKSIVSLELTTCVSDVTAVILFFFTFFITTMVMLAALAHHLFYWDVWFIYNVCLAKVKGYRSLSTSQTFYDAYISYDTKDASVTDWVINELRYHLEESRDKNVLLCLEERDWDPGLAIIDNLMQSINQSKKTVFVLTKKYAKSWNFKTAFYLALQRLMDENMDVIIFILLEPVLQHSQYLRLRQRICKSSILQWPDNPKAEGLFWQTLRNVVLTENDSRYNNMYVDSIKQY
Sequence of human TLR9 (Q9NR96 26-1032): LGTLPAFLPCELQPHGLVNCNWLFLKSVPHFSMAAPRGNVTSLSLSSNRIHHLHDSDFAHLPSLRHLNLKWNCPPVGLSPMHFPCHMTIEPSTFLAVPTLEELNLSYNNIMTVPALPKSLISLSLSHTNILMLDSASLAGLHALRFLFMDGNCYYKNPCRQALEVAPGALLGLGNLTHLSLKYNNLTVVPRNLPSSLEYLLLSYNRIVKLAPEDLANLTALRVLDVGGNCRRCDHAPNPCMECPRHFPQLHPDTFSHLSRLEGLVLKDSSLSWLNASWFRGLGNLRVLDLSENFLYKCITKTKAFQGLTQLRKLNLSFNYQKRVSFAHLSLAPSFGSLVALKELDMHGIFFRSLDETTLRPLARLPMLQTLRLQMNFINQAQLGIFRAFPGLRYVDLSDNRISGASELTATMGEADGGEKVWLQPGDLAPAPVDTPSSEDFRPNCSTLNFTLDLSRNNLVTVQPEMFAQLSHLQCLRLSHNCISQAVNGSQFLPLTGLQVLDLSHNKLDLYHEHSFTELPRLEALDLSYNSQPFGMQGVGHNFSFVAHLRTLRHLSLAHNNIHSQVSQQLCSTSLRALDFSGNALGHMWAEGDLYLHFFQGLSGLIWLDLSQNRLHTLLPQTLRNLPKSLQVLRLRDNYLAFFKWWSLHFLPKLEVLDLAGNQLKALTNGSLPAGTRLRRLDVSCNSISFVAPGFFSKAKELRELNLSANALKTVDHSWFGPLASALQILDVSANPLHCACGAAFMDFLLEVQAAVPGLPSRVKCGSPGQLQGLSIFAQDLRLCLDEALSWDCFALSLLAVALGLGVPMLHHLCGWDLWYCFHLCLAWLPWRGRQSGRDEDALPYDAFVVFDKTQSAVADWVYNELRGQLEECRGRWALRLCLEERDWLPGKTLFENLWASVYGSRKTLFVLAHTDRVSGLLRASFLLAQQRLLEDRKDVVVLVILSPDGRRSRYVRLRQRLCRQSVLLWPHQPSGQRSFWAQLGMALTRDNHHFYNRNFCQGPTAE
Sequence of human TLR7 (Q9NYK1 27-1049): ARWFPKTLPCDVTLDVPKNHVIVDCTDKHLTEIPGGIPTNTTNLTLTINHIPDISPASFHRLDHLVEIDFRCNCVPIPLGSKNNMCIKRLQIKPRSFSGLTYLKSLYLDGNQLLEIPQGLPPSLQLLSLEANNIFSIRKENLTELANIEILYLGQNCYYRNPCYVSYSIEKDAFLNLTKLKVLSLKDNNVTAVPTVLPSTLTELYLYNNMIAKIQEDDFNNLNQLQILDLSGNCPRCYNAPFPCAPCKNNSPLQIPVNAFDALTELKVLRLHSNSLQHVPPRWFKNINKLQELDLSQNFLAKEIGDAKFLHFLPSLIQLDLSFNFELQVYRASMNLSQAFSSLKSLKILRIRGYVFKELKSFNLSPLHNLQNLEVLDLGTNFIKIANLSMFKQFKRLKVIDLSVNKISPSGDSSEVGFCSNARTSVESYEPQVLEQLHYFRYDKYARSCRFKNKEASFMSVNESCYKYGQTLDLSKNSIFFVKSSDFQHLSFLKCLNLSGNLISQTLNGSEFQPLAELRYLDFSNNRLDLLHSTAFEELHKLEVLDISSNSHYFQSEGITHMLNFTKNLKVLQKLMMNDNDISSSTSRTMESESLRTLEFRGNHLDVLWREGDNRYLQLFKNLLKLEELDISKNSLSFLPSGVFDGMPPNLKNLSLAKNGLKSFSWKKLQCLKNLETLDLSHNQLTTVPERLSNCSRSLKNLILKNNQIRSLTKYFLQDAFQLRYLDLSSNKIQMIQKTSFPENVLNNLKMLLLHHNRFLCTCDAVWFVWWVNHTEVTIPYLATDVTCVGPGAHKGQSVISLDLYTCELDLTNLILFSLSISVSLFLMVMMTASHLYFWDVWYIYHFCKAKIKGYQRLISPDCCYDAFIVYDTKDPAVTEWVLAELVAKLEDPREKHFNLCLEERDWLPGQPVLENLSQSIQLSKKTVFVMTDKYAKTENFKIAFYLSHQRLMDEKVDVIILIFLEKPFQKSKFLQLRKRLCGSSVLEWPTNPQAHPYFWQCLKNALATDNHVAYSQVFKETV

Turning to `Cc1cc(-c2[nH]c3ccc(C4CCN(C(=O)[C@@H]5C[C@H](O)CCN5)CC4)cc3c2C(C)C)ccn1` [Example 581, ((2S,4R)-4-hydroxypiperidin-2-yl)(4-(3-isopropyl-2-(2-methylpyridin-4-yl)-1H-indol-5-yl)piperidin-1-yl)methanone], the IC50 – broadly, the midpoint of a concentration-inhibition curve – at human TLR8 (setting [1]) was 6.9 nM; at human TLR9 (setting [2]), 967 nM; against human TLR7 (setting [3]), 10.6 nM.
For `Cc1cc(-c2[nH]c3ccc(C4CCN(CC5(CO)COC5)CC4)cc3c2C(C)C)cc(C)n1` [Example 319, (3-((4-(2-(2,6-dimethylpyridin-4-yl)-3-isopropyl-1H-indol-5-yl)piperidin-1-yl)methyl)oxetan-3-yl)methanol] the same measures were 4 nM, 355 nM and 2.7 nM.
In the same order, the values of `Cc1cc(-c2[nH]c3ccc(C4CCN(C(=O)C(C)C)CC4)cc3c2C(C)C)ccn1` [Example 602, 1-(4-(3-isopropyl-2-(2-methylpyridin-4-yl)-1H-indol-5-yl)piperidin-1-yl)-2-methylpropan-1-one] are 158 nM, 32000 nM and 24.7 nM.
In the case of `CNCCC(=O)N1CCC(c2ccc3[nH]c(-c4cc(C)nc(C)c4)c(C(C)C)c3c2)CC1` [Example 183, 1-(4-(2-(2,6-dimethylpyridin-4-yl)-3-isopropyl-1H-indol-5-yl)piperidin-1-yl)-3-(methylamino)propan-1-one], the IC50 against human TLR8 (TLR8 IC50, HEK-Blue cells overexpressing human TLR8, R848 15.9 μM) is 19.7 nM; against human TLR9 (TLR9 IC50, HEK-Blue cells overexpressing human TLR9, ODN2006 5 nM) it was 323 nM; against human TLR7 (setting [3]) it was 0.9 nM.
Consider `Cc1cc(-c2[nH]c3ccc(C4CCN(CC5COC5)CC4)cc3c2C(C)C)cc(C)n1` [Example 333, 2-(2,6-dimethylpyridin-4-yl)-3-isopropyl-5-(1-(oxetan-3-ylmethyl)piperidin-4-yl)-1H-indole], for which the half-maximal inhibitory concentration (IC50) at human TLR8 (setting [1]) stood at 1.4 nM; at human TLR9 (setting [2]), 364 nM; against human TLR7 (setting [3]), 0.8 nM.
In the same order, the values of `Cc1cc(-c2[nH]c3ccc(C4CCN(C(=O)[C@H]5CC[C@H](N)CC5)CC4)cc3c2C(C)C)ccn1` [Example 764, ((1r,4r)-4-aminocyclohexyl) (4-(3-isopropyl-2-(2-methylpyridin-4-yl)-1H-indol-5-yl)piperidin-1-yl)methanone] are 262 nM, 603 nM and 174 nM.
For `Cc1cc(-c2[nH]c3ccc(C4CCN(CC(=O)N5CCCC5)CC4)cc3c2C(C)C)cc(C)n1` [Example 242, 2-(4-(2-(2,6-dimethylpyridin-4-yl)-3-isopropyl-1H-indol-5-yl)piperidin-1-yl)-1-(pyrrolidin-1-yl)ethan-1-one] the same measures were 24.7 nM, 1020 nM and 5.2 nM.
In the same order, the values of `Cc1cc(-c2[nH]c3ccc(C4CCN(C(=O)Cn5ccnn5)CC4)cc3c2C(C)C)cc(C)n1` [Example 158, 1-(4-(2-(2,6-dimethylpyridin-4-yl)-3-isopropyl-1H-indol-5-yl)piperidin-1-yl)-2-(1H-1,2,3-triazol-1-yl)ethan-1-one] are 85.4 nM, 5720 nM and 6 nM.
For the compound `Cc1cc(-c2[nH]c3ccc(C4CCN(C(=O)CCN(C)C)CC4)cc3c2C(C)C)ccn1` [Example 578, 3-(dimethylamino)-1-(4-(3-isopropyl-2-(2-methylpyridin-4-yl)-1H-indol-5-yl)piperidin-1-yl)propan-1-one], the results for the concentration for half-maximal inhibition (IC50) at human TLR8 (setting [1]), on human TLR9 (setting [2]) and against human TLR7 (setting [3]) were 5.7 nM, 722 nM and 7.1 nM, respectively.
As to `Cc1cc(-c2[nH]c3ccc(C4CCN(C(=O)C5CCN(C(C)C)CC5)CC4)cc3c2C(C)C)ccn1` [Example 563, (4-(3-isopropyl-2-(2-methylpyridin-4-yl)-1H-indol-5-yl)piperidin-1-yl)(1-isopropylpiperidin-4-yl)methanone], the half-inhibitory concentration (IC50) on human TLR8 (setting [1]) is 18.9 nM; on human TLR9 (setting [2]), 1150 nM; on human TLR7 (setting [3]), 16.5 nM.
Consider `CC(C)c1c(-c2ccnc(N)c2)[nH]c2ccc(C3CCN(C(=O)C4CCNCC4)CC3)cc12` [Example 819, (4-(2-(2-aminopyridin-4-yl)-3-isopropyl-1H-indol-5-yl)piperidin-1-yl)(piperidin-4-yl)methanone], for which the IC50 at human TLR8 (read-out: TLR8 IC50, HEK-Blue cells, R848 15.9 μM) amounted to 588 nM; at human TLR9 (read-out: TLR9 IC50, HEK-Blue cells, ODN2006 5 nM), 712 nM; on human TLR7 (HEK-Blue cells, gardiquimod 7.5 μM), 415 nM.
Turning to `Cc1cc(-c2[nH]c3ccc(C4CCNCC4)cc3c2CC(F)F)cc(C)n1` [Example 492, 3-(2,2-difluoroethyl)-2-(2,6-dimethylpyridin-4-yl)-5-(piperidin-4-yl)-1H-indole], the half-maximal inhibitory concentration (IC50) was 54.1 nM on human TLR8 (setting [1]), 539 nM on human TLR9 (setting [2]) and 15.8 nM against human TLR7 (setting [3]).
As for `Cc1cc(-c2[nH]c3ccc(C4CCN(Cc5ncon5)CC4)cc3c2C(C)C)c(C)cn1` [Example 734, 3-((4-(2-(2,5-dimethylpyridin-4-yl)-3-isopropyl-1H-indol-5-yl)piperidin-1-yl)methyl)-1,2,4-oxadiazole], the IC50 at human TLR8 (setting [1]) was 6.8 nM; on human TLR9 (setting [2]) it was 8990 nM; against human TLR7 (setting [3]) it was 13.8 nM.
For `CNCCN1CCC(c2ccc3[nH]c(-c4cc(Cl)ncc4OC)c(C)c3c2)CC1` [Example 757, 2-(4-(2-(2-chloro-5-methoxypyridin-4-yl)-3-methyl-1H-indol-5-yl)piperidin-1-yl)-N-methylethan-1-amine], the IC50 on human TLR8 (setting [1]) was found to be 93.2 nM; on human TLR9 (setting [2]), 1300 nM; against human TLR7 (setting [3]), 6670 nM.
In the same order, the values of `Cc1cc(-c2[nH]c3ccc(C4CCN(Cc5c[nH]c(C)n5)CC4)cc3c2CC(F)F)cc(C)n1` [Example 538, 3-(2,2-difluoroethyl)-2-(2,6-dimethylpyridin-4-yl)-5-(1-((2-methyl-1H-imidazol-4-yl)methyl)piperidin-4-yl)-1H-indole] are 34.6 nM, 69 nM and 39.6 nM.
For `Cc1cc(-c2[nH]c3ccc(C4CCN(CC(C)C)CC4)cc3c2C(C)C)cc(C)n1` [Example 471, 2-(2,6-dimethylpyridin-4-yl)-5-(1-isobutylpiperidin-4-yl)-3-isopropyl-1H-indole] the same measures were 8 nM, 610 nM and 2.4 nM.
For `Cc1nccc(-c2[nH]c3ccc(C4CCN(CC(=O)N(C)C)CC4)cc3c2C(C)C)c1F` [Example 648, 2-(4-(2-(3-fluoro-2-methylpyridin-4-yl)-3-isopropyl-1H-indol-5-yl)piperidin-1-yl)-N,N-dimethylacetamide] the same measures were 3.7 nM, 2240 nM and 3 nM.
With `CCc1c(-c2ccncc2)[nH]c2ccc(C3CCN(C4CC(C)(C)NC(C)(C)C4)CC3)cc12` [Example 807, 3-ethyl-2-(pyridin-4-yl)-5-(2′,2′,6′,6′-tetramethyl-[1,4′-bipiperidin]-4-yl)-1H-indole], the IC50 on human TLR8 (setting [1]) came out at 8.6 nM; on human TLR9 (setting [2]) it was 117 nM; against human TLR7 (setting [3]), 226 nM.
For `Cc1cc(-c2[nH]c3ccc(C4CCN(C(=O)Cn5ccc(C(F)(F)F)n5)CC4)cc3c2C(C)C)cc(C)n1` [Example 156, 1-(4-(2-(2,6-dimethylpyridin-4-yl)-3-isopropyl-1H-indol-5-yl)piperidin-1-yl)-2-(3-(trifluoromethyl)-1H-pyrazol-1-yl)ethan-1-one] the same measures were 187 nM, 18600 nM and 29.9 nM.
In the same order, the values of `CC(C)c1c(-c2cc(F)ncc2Cl)[nH]c2ccc(C3CCNCC3)cc12` [Example 18, 2-(5-chloro-2-fluoropyridin-4-yl)-3-isopropyl-5-(piperidin-4-yl)-1H-indole] are 47 nM, 6270 nM and 177 nM.
Take `COc1cc(-c2[nH]c3ccc(C4CCN(Cc5c[nH]c(C)n5)CC4)cc3c2C(C)C)ccn1` [Example 520, 3-isopropyl-2-(2-methoxypyridin-4-yl)-5-(1-((2-methyl-1H-imidazol-4-yl)methyl)piperidin-4-yl)-1H-indole]: the half-inhibitory concentration (IC50) at human TLR8 (setting [1]) was 27.1 nM; on human TLR9 (setting [2]), 437 nM; against human TLR7 (setting [3]), 42.7 nM.
As for `Cc1cc(-c2[nH]c3ccc(C4CCN(Cc5cc(C)on5)CC4)cc3c2C(C)C)cc(C)n1` [Example 443, 3-((4-(2-(2,6-dimethylpyridin-4-yl)-3-isopropyl-1H-indol-5-yl)piperidin-1-yl)methyl)-5-methylisoxazole], the IC50 on human TLR8 (setting [1]) stood at 10.9 nM; at human TLR9 (setting [2]) it was 1680 nM; against human TLR7 (setting [3]) it was 22.9 nM.
In the same order, the values of `Cc1cc(-c2[nH]c3ccc(C4CCN(Cc5nnc(C6CC6)o5)CC4)cc3c2C(C)C)c(F)cn1` [Example 698, 2-cyclopropyl-5-((4-(2-(5-fluoro-2-methylpyridin-4-yl)-3-isopropyl-1H-indol-5-yl)piperidin-1-yl)methyl)-1,3,4-oxadiazole] are 37.6 nM, 12400 nM and 54.2 nM.
In the same order, the values of `CCc1c(-c2ccnc(OC)c2)[nH]c2ccc(C3CCN(C4CCN(CC5CC5)CC4)CC3)cc12` [Example 789, 5-(1′-(cyclopropylmethyl)-[1,4′-bipiperidin]-4-yl)-3-ethyl-2-(2-methoxypyridin-4-yl)-1H-indole] are 269 nM, 408 nM and 599 nM.
Regarding `Cc1cc(-c2[nH]c3ccc(C4CCN(CC(C)(C)C)CC4)cc3c2C(C)C)cc(C)n1` [Example 470, 2-(2,6-dimethylpyridin-4-yl)-3-isopropyl-5-(1-neopentylpiperidin-4-yl)-1H-indole], the figures for the 50% inhibitory concentration (IC50) at human TLR8 (setting [1]), at human TLR9 (setting [2]) and against human TLR7 (setting [3]) were 23.8 nM, 532 nM and 5.9 nM, respectively.

The record behind these values is patent US10660877B2 (BRISTOL-MYERS SQUIBB COMPANY, priority 2016, dated 2020).
